This note sets out measurements from patent US20120101136A1, “5-MEMBERED HETEROARYL DERIVATIVES USED AS SPHINGOSINE 1- PHOSPHATE RECEPTOR AGONISTS” (GLAXO GROUP LIMITED, priority 2009, published 2012).

The term EC50 denotes the concentration at which the effect is half-maximal. A lower EC50 goes with a more potent agent.

The target in the experiment is T1, S1P1 receptor (human Endothelial Differentiation Gene 1 (EDG1)) (Homo sapiens, UniProt P21453).
T1 construct: TEV protease site; Gal4-VP16 transcription factor; expressed in transfected cells; host or cells: Tango GPCR-bla U2OS parental cell line (EDG1-bla/U2OS)
T1 sequence (P21453 whole entry, the tested form may be a part): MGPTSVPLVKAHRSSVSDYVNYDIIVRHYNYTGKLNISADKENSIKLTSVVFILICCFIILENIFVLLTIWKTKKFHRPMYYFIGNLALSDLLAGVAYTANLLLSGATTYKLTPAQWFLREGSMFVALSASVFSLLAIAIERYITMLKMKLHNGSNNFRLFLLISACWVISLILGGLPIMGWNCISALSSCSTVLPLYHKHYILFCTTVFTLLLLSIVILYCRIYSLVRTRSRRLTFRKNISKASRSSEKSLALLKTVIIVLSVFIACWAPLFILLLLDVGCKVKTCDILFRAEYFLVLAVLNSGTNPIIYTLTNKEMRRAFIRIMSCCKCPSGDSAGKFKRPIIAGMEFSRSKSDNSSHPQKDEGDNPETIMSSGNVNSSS
The experiment in a line: S1P1 Tango Assay - 384 Well Format (EDG1-bla/U2OS cells). It counts as cell-based. Particulars: agonist, beta-lactamase reporter. Here is the method:
Recombinant EDG1-bla/U2OS cells (contain the human Endothelial Differentiation Gene 1 (EDG1) linked to a TEV protease site and a Gal4-VP16 transcription factor stably integrated into the Tango GPCR-bla U2OS parental cell line) were harvested from growth medium and passaged into assay medium (Invitrogen Freestyle Expression Medium). The cells were starved for 24 hours at 37° C., 5% CO2, harvested and resuspended in assay medium at a density of ˜200,000 cells/ml.
All test compounds were dissolved in DMSO at a concentration of 10 mM and were prepared in 100% DMSO to provide 10 point dose response curves. Test compounds prepared by Bravo (Velocity 11) were added to wells in columns 2-11 and 13-22; DMSO was added to wells in columns 12 and 23 as unstimulated controls and assay medium was added to wells in columns 1 and 24 as cell-free controls. An S1P1 agonist was added to wells in row 2, columns 2-11 as stimulated controls and test compounds were added to wells in row 2, columns 13-22 and rows 3-15, columns 2-11/13-22 (row 1 and 16 were empty and not used). Compounds in solution were added to the assay plate (Greiner 781090) using an Echo (Labcyte) dose-response program (50 nl/well). The unstimulated and cell-free controls were loaded with 50 nl/well pure DMSO to ensure that the DMSO concentration was constant across the plate for all assays.
50 μl of the cell suspension was added to each well in columns 2-23 of the plate (˜10,000 cells per well). 50 μl of assay medium was added to each well in the cell-free controls (columns 1 and 24). The cells were incubated overnight at 37° C./5% CO2.
10 μl of 6× substrate mixture (LiveBLAzer™-FRET B/G substrate (CCF4-AM) Cat # K1096 from Invitrogen, Inc.) was added to each well using Bravo and the plates incubated at room temperature for 2 h in the dark. The plate was finally read on EnVision using one excitation channel (409 nm) and two emission channels (460 nm and 530 nm).
The blue/green emission ratio (460 nm/530 nm) was calculated for each well, by dividing the background-subtracted Blue emission values by the background-subtracted Green emission values. The dose response curve is based on sigmoidal dose-response model. All ratio data was normalized based upon the maximum emission ratio of positive control and minimum emission ratio of negative control (DMSO) on each plate. The intrinsic activity (IA) of each compound would be the normalized percentage of its maximum response after curve fitting.
For the compound `Cc1cc(OCCCC(=O)O)ccc1-c1noc(-c2ccc(OC(C)C)c(Cl)c2)n1` [Example 1, 4-{[4-(5-{3-Chloro-4-[(1-methylethyl)oxy]phenyl}-1,2,4-oxadiazol-3-yl)-3-methylphenyl]oxy}butanoic acid], the EC50 was no more than 0.1 nM. Compound `Cc1cc(OCCCCC(=O)O)ccc1-c1noc(-c2ccc(OC(C)C)c(Cl)c2)n1` [Example 2, 5-{[4-(5-{3-Chloro-4-[(1-methylethyl)oxy]phenyl}-1,2,4-oxadiazol-3-yl)-3-methylphenyl]oxy}pentanoic acid] had a 50% effective concentration (EC50) of no more than 1 nM. In turn, `Cc1cc(OCC(=O)O)ccc1-c1noc(-c2ccc(OC(C)C)c(Cl)c2)n1` [Example 3, {[4-(5-{3-Chloro-4-[(1-methylethyl)oxy]phenyl}-1,2,4-oxadiazol-3-yl)-3-methylphenyl]oxy}acetic acid] had an EC50 of no more than 1 nM.

On to `CNCCOc1ccc(-c2noc(-c3ccc(OC(C)C)c(Cl)c3)n2)c(C)c1` [Example 5, 2-{[4-(5-{3-Chloro-4-[(1-methylethyl)oxy]phenyl}-1,2,4-oxadiazol-3-yl)-3-methylphenyl]oxy}-N-methylethanamine], for which the concentration for a half-maximal effect (EC50) was no more than 10 nM.

`COCCOc1ccc(-c2noc(-c3ccc(OC(C)C)c(Cl)c3)n2)c(C)c1` [Example 6, 5-{3-Chloro-4-[(1-methylethyl)oxy]phenyl}-3-(2-methyl-4-{[2-(methyloxy)ethyl]oxy}phenyl)-1,2,4-oxadiazole]: the EC50 was no more than 10 nM. Take `CC(C)Oc1ccc(-c2nc(-c3ccc(OCCCCC(=O)O)cc3Cl)no2)cc1C#N` [Example 7, 5-{[3-Chloro-4-(5-{3-cyano-4-[(1-methylethyl)oxy]phenyl}-1,2,4-oxadiazol-3-yl)phenyl]oxy}pentanoic acid]: the EC50 is no more than 0.1 nM. The compound `CC(C)Oc1ccc(-c2nc(-c3ccc(OCCCCC(=O)O)cc3)no2)cc1C#N` [Example 8, 5-{[4-(5-{3-Cyano-4-[(1-methylethyl)oxy]phenyl}-1,2,4-oxadiazol-3-yl)phenyl]oxy}pentanoic acid] gave an EC50 of no more than 1 nM. `CC(C)Oc1ccc(-c2nc(-c3ccc(OCC(=O)O)cc3Cl)no2)cc1C#N` [Example 9, {[3-Chloro-4-(5-{3-cyano-4-[(1-methylethyl)oxy]phenyl}-1,2,4-oxadiazol-3-yl)phenyl]oxy}acetic acid] showed an EC50 of no more than 10 nM. Regarding `CC(C)Oc1ccc(-c2nc(-c3ccc(OCCCC(=O)O)cc3Cl)no2)cc1C#N` [Example 10, 4-{[3-Chloro-4-(5-{3-cyano-4-[(1-methylethyl)oxy]phenyl}-1,2,4-oxadiazol-3-yl)phenyl]oxy}butanoic acid], the EC50 is no more than 0.1 nM. The value for `CC(C)Oc1ccc(-c2nc(-c3ccc(OCCCCC(=O)O)cc3F)no2)cc1C#N` [Example 11, 5-{[4-(5-{3-Cyano-4-[(1-methylethyl)oxy]phenyl}-1,2,4-oxadiazol-3-yl)-3-fluorophenyl]oxy}pentanoic acid] was no more than 1 nM; that for `COc1cc(OCCCCC(=O)O)ccc1-c1noc(-c2ccc(OC(C)C)c(C#N)c2)n1` [Example 12, 5-{[4-(5-{3-Cyano-4-[(1-methylethyl)oxy]phenyl}-1,2,4-oxadiazol-3-yl)-3-(methyloxy)phenyl]oxy}pentanoic acid] was no more than 1 nM. For `CCc1cc(OCCCNC)ccc1-c1nnc(-c2ccc(OC(C)C)c(C#N)c2)s1` [Example 13, 5-[5-(2-ethyl-4-{[3-(methylamino)propyl]oxy}phenyl)-1,3,4-thiadiazol-2-yl]-2-[(1-methylethyl)oxy]benzonitrile], the EC50 was no more than 1000 nM. The value for `CCc1cc(OCCCNC)ccc1-c1nnc(-c2ccc(OC(C)C)c(C#N)c2)o1` [Example 14, 5-[5-(2-ethyl-4-{[3-(methylamino)propyl]oxy}phenyl)-1,3,4-oxadiazol-2-yl]-2-[(1-methylethyl)oxy]benzonitrile] was no more than 100 nM. In the case of `CCc1cc(OCCCC(=O)O)ccc1-c1nnc(-c2ccc(OC(C)C)c(C#N)c2)o1` [Example 15, 4-{[4-(5-{3-cyano-4-[(1-methylethyl)oxy]phenyl}-1,3,4-oxadiazol-2-yl)-3-ethylphenyl]oxy}butanoic acid], the EC50 is no more than 1 nM. The compound `CCc1cc(OCCCC(=O)O)ccc1-c1nnc(-c2ccc(OC(C)C)c(C#N)c2)s1` [Example 16, 4-{[4-(5-{3-cyano-4-[(1-methylethyl)oxy]phenyl}-1,3,4-thiadiazol-2-yl)-3-ethylphenyl]oxy}butanoic acid] had an EC50 of no more than 1 nM. Under `CC(C)Oc1ccc(-c2nc(-c3ccc(OCCCCN(C)C)cc3Cl)no2)cc1C#N` [Example 17, 5-[3-(2-chloro-4-{[4-(dimethylamino)butyl]oxy}phenyl)-1,2,4-oxadiazol-5-yl]-2-[(1-methylethyl)oxy]benzonitrile] stands no more than 10 nM; under `CC(C)NCCCCOc1ccc(-c2noc(-c3ccc(OC(C)C)c(C#N)c3)n2)c(Cl)c1` [Example 18, 5-{3-[2-chloro-4-({4-[(1-methylethyl)amino]butyl}oxy)phenyl]-1,2,4-oxadiazol-5-yl}-2-[(1-methylethyl)oxy]benzonitrile], no more than 10 nM; under `CCCNCCCCOc1ccc(-c2noc(-c3ccc(OC(C)C)c(C#N)c3)n2)c(Cl)c1` [Example 19, 5-[3-(2-chloro-4-{[4-(propylamino)butyl]oxy}phenyl)-1,2,4-oxadiazol-5-yl]-2-[(1-methylethyl)oxy]benzonitrile], no more than 10 nM.

In turn, `CCNCCCCOc1ccc(-c2noc(-c3ccc(OC(C)C)c(C#N)c3)n2)c(Cl)c1` [Example 20, 5-[3-(2-chloro-4-{[4-(ethylamino)butyl]oxy}phenyl)-1,2,4-oxadiazol-5-yl]-2-[(1-methylethyl)oxy]benzonitrile] had an EC50 of no more than 10 nM. In turn, `CNCCCCOc1ccc(-c2noc(-c3ccc(OC(C)C)c(C#N)c3)n2)c(Cl)c1` [Example 21, 5-[3-(2-chloro-4-{[4-(methylamino)butyl]oxy}phenyl)-1,2,4-oxadiazol-5-yl]-2-[(1-methylethyl)oxy]benzonitrile] gave an EC50 of no more than 1 nM. `CC(C)Oc1ccc(-c2nc(-c3ccc(OCCCC(=O)O)cc3F)no2)cc1C#N` [Example 22, 4-{[4-(5-{3-cyano-4-[(1-methylethyl)oxy]phenyl}-1,2,4-oxadiazol-3-yl)-3-fluorophenyl]oxy}butanoic acid] showed an EC50 of no more than 0.1 nM. In turn, `CC(C)Oc1ccc(-c2nc(-c3ccc(OCC(=O)O)cc3F)no2)cc1C#N` [Example 23, {[4-(5-{3-cyano-4-[(1-methylethyl)oxy]phenyl}-1,2,4-oxadiazol-3-yl)-3-fluorophenyl]oxy}acetic acid] showed a half-maximal effective concentration (EC50) of no more than 100 nM.

For `CC(C)Oc1ccc(-c2nc(-c3ccc(OCCCC(=O)O)cc3)no2)cc1C#N` [Example 24, 4-{[4-(5-{3-cyano-4-[(1-methylethyl)oxy]phenyl}-1,2,4-oxadiazol-3-yl)phenyl]oxy}butanoic acid], the EC50 was no more than 1 nM. For `CC(C)Oc1ccc(-c2nc(-c3ccc(OCC(=O)O)cc3)no2)cc1C#N` [Example 25, {[4-(5-{3-cyano-4-[(1-methylethyl)oxy]phenyl}-1,2,4-oxadiazol-3-yl)phenyl]oxy}acetic acid], the EC50 is no more than 100 nM. The compound `CCc1cc(OCCNC)ccc1-c1noc(-c2ccc(OC(C)C)c(Cl)c2)n1` [Example 26, (2-{[4-(5-{3-chloro-4-[(1-methylethyl)oxy]phenyl}-1,2,4-oxadiazol-3-yl)-3-ethylphenyl]oxy}ethyl)methylamine] gave an EC50 of no more than 10 nM.

Turning to `CCc1cc(OCC(=O)O)ccc1-c1noc(-c2ccc(OC(C)C)c(C#N)c2)n1` [Example 27, {[4-(5-{3-cyano-4-[(1-methylethyl)oxy]phenyl}-1,2,4-oxadiazol-3-yl)-3-ethylphenyl]oxy}acetic acid], the EC50 is no more than 1 nM.

Compound `CCc1cc(OCC(=O)O)ccc1-c1noc(-c2ccc(OC(C)C)c(Cl)c2)n1` [Example 28, {[4-(5-{3-chloro-4-[(1-methylethyl)oxy]phenyl}-1,2,4-oxadiazol-3-yl)-3-ethylphenyl]oxy}acetic acid] showed an EC50 of no more than 1 nM. In the case of `CCc1cc(OCCCCC(=O)O)ccc1-c1noc(-c2ccc(OC(C)C)c(Cl)c2)n1` [Example 29, 5-{[4-(5-{3-chloro-4-[(1-methylethyl)oxy]phenyl}-1,2,4-oxadiazol-3-yl)-3-ethylphenyl]oxy}pentanoic acid], the EC50 was no more than 1 nM. For the compound `CCc1cc(OCCCC(=O)O)ccc1-c1noc(-c2ccc(OC(C)C)c(Cl)c2)n1` [Example 30, 4-{[4-(5-{3-chloro-4-[(1-methylethyl)oxy]phenyl}-1,2,4-oxadiazol-3-yl)-3-ethylphenyl]oxy}butanoic acid], the EC50 was no more than 0.1 nM.
